# Patent US11833160B2, “Ursodeoxycholic acid derivatives as HDAC inhibitors for the treatment of polycystic diseases” (UNIVERSIDAD DEL PAIS VASCO/EUSKAL HERRIKO UNIBERTSITATEA, priority 2017, dated 2023)
# Key:
# [1] = target: T1, human HDAC1 (Homo sapiens, UniProt Q13547); assay: HDAC1 enzymatic activity assay (fluorogenic peptide); assay type: biochemical; conditions: 10-dose, 3-fold serial dilution, triplicate
# T1 construct: GST (C); purchased BioMol SE-456; host or cells: baculovirus / Sf9 cells
# Experimental: (§1) Peptide substrates: all HDAC assays were performed using acetylated peptide substrates labeled with 7-amino-4-methylcoumarin (AMC): • Substrate for isoforms HDAC1, 2, 3, 6, 10, 11, and HeLa nuclear extract assays: acetylated fluorogenic peptide from p53 residues 379-382 (RHKKAc). • Substrate for isoforms HDAC4, 5, 7, 9: fluorogenic Boc-L-Lys (s-trifluoroacetyl)-AMC. • Substrate for HDAC8 assays: acetylated fluorogenic peptide from p53 residues 379-382 (RHKAcKAc).
# (§2) 50 μl of peptide substrate (see “peptide substrates” section above) and an optimal concentration of the corresponding enzyme (see “enzymes” section above) in the assay buffer at a final DMSO concentration of 1% were incubated in the presence of gradient concentrations of inhibitors (10-dose IC50 mode with 3-fold serial dilution) at 30° C. for 2 hours. The reactions were carried out in a 96-well microplate for fluorometry in a 50 μl reaction volume. After the deacetylation reaction, Fluor-de-Lys-Developer (BioMol Cat. #KI-105) was added to each well to digest the deacetylated substrate, thereby producing the fluorescent signal. The reaction was carried out for 45 minutes at 30° C. with 5% CO2; the fluorescent signal was then measured using an excitation wavelength of 360 nm and an emission wavelength of 460 nm in a microplate-reading fluorometer (GeminiXS, Molecular Devices, Sunnyvale, CA). A curve of deacetylated standard (Biomol, Cat. #KI-142; made from 100 μM with 1:2 dilution and 10 doses, 6 μl) allowed the conversion of the fluorescent signal into micromoles of deacetylated product. All experiments were performed in triplicate. The IC50s were calculated by fitting the experimental data to dose-response curve. DMSO was used as negative control; Trichostatin A (Biomol Cat. #GR-309) was used as positive control inhibitor.
# (§3) Enzymatic activity assays were carried out in 11 HDAC enzymes, including HDAC6.
# [2] = target: T2, human HDAC8 (Homo sapiens, UniProt Q9BY41); assay: HDAC8 enzymatic activity assay (fluorogenic peptide); assay type: biochemical; conditions: 10-dose, 3-fold serial dilution, triplicate
# T2 construct: purchased BioMol SE-145; host or cells: E. coli
# T2 sequence (Q9BY41 1-377): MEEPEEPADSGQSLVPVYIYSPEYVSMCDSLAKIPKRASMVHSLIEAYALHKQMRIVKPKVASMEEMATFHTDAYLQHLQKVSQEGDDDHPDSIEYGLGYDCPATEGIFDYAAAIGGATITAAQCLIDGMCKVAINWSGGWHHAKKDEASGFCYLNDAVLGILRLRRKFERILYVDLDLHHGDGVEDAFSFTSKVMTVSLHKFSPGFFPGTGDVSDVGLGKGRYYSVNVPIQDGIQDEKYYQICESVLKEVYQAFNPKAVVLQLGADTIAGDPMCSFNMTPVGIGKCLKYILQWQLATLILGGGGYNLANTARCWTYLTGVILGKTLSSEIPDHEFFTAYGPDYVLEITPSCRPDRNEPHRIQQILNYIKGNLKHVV
# Experimental: as §1, §2, §3
# [3] = target: T3, human HDAC10 (Homo sapiens, UniProt Q969S8); assay: HDAC10 enzymatic activity assay (fluorogenic peptide); assay type: biochemical; conditions: 10-dose, 3-fold serial dilution, triplicate
# T3 sequence (Q969S8 1-631): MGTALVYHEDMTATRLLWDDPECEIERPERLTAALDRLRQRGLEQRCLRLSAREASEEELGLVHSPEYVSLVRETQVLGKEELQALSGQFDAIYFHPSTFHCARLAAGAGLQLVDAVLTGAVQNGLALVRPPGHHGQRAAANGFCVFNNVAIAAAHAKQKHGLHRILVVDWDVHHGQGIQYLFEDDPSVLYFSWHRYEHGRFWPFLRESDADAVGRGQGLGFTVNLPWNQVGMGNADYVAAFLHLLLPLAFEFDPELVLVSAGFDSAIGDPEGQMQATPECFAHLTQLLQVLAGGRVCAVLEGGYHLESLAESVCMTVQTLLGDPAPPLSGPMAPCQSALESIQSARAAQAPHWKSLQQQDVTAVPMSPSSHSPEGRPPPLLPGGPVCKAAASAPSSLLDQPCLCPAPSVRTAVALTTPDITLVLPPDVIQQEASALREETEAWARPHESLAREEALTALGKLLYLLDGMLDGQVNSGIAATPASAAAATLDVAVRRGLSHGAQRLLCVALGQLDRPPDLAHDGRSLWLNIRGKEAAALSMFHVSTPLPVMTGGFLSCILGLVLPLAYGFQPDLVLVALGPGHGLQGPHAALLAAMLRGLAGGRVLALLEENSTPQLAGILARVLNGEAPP
# Experimental: as §1
# (§4) 50 μl of peptide substrate (see “peptide substrates” section above) and an optimal concentration of the corresponding enzyme (see “enzymes” section above) in the assay buffer at a final DMSO concentration of 1% were incubated in the presence of gradient concentrations of inhibitors (10-dose IC50 mode with 3-fold serial dilution) at 30° C. for 2 hours. The reactions were carried out in a 96-well microplate for fluorometry in a 50 μl reaction volume. After the deacetylation reaction, Fluor-de-Lys-Developer (BioMol Cat. #KI-105) was added to each well to digest the deacetylated substrate, thereby producing the fluorescent signal. The reaction was carried out for 45 minutes at 30° C. with 5% CO2; the fluorescent signal was then measured using an excitation wavelength of 360 nm and an emission wavelength of 460 nm in a microplate-reading fluorometer (GeminiXS, Molecular Devices, Sunnyvale, CA). […]
# [4] = target: T4, human HDAC11 (Homo sapiens, UniProt Q96DB2); assay: HDAC11 enzymatic activity assay (fluorogenic peptide); assay type: biochemical; conditions: 10-dose, 3-fold serial dilution, triplicate
# T4 construct: GST (N); purchased BioMol SE-560; host or cells: baculovirus expression system
# T4 sequence (Q96DB2 1-347): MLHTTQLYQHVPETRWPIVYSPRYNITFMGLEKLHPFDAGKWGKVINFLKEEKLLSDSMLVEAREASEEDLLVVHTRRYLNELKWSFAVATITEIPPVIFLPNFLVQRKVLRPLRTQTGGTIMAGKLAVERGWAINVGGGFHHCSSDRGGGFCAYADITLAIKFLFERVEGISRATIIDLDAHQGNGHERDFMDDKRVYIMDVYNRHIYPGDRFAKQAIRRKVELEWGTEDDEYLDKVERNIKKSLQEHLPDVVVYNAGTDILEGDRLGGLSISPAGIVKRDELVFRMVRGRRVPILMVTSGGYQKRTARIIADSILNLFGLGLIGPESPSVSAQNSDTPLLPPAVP
# Experimental: as §1, §4
# [5] = system: polycystic human cholangiocytes; assay: Intracellular Ca^2+ measurement (Fluo-4 AM); assay type: cell-based
# Description: As described previously [Banales J M et al. Hepatology 2009; Perugorria M J et al. Nature Reviews G&H; Munoz-Garrido P et al. Journal of Hepatology 2015], polycystic (human and rat) cholangiocytes are characterized by a decrease in intracellular Ca^2+ levels, which promotes their proliferation. Furthermore, it has been proven that chronic treatment with UDCA is capable of partially inhibiting the proliferation of polycystic human cholangiocytes through the normalization of intracellular Ca^2+ levels in experimental models [Munoz-Garrido P et al. Journal of Hepatology 2015] and patients [D'Agnolo H M A, et al. Journal of Hepatology 2016] with PLD. […] To that end, the “Fluo-4 AM” (Thermo Fisher Scientific) intracellular Ca^2+ measurement method was used. A Ca^2+ ionophore (i.e., A23187, Sigma) was used as positive control.
# [6] = system: PCK rats; assay: Chronic treatment of PCK rats (animal model of PLD), liver transaminase ALT; assay type: in vivo, rat; conditions: 7 mg/kg/day, 2 months
# Experimental: PCK rats were chronically treated (2 months) with compound Ia (7 mg/kg/day).
# T1 sequence (Q13547 whole entry): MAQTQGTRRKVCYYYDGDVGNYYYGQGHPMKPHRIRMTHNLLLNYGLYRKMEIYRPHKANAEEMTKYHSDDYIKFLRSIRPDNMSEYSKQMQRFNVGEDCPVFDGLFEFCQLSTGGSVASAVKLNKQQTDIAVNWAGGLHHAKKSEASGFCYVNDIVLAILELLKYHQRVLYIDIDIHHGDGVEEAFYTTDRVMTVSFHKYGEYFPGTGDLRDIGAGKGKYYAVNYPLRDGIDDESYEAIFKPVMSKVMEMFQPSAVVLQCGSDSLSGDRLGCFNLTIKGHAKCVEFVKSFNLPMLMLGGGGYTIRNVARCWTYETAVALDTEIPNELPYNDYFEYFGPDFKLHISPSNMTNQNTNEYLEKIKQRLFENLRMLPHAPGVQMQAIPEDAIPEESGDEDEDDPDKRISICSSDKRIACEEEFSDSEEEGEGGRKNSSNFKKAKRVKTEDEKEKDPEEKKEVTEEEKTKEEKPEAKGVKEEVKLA
Structure (SMILES),IC50 [1] [µM],IC50 [2] [µM],IC50 [3] [µM],IC50 [4] [µM],intracellular Ca^2+ levels [5],levels of liver transaminase ALT [6]
C[C@H](CCC(=O)NCc1ccc(C(=O)NO)cc1)[C@H]1CC[C@H]2[C@@H]3[C@@H](O)C[C@@H]4C[C@H](O)CC[C@]4(C)[C@H]3CC[C@]12C [Compound Ia],10.1,0.894,24.5,2.33,increasing intracellular Ca^2+ levels,significantly reduced
"C[C@H](CCC(=O)NCC(=O)NCc1ccc(C(=O)NO)cc1)[C@H]1CC[C@H]2[C@@H]3[C@@H](O)C[C@@H]4C[C@H](O)CC[C@]4(C)[C@H]3CC[C@]12C [Ib, 4-((2-((R)-4 ((3R,5S,7S,8R,9S,10S,13R,14S,17R)-3,7-dihydroxy-10,13-dimethylhexadecahydro-1H-cyclopenta[a]phenanthren-17-yl)pentanamide)acetamido)methyl)-N-hydroxybenzamide]",9.01,0.615,21.8,2.56,increasing intracellular Ca^2+ levels,
